Consider 31 molecules from patent US20170253601A1, “Substituted Pyrrolidine Compounds” (EPIZYME, INC., priority 2014, published 2017).

The IC50 is the midpoint of a concentration-inhibition curve.

For one test, the target named is T1, SMYD2 (Homo sapiens, UniProt Q9NRG4).
T1 construct: Full length SMYD2 (NP 064582.2) was cloned; His6 (N, cleaved yes); FLAG (N); made in house; host or cells: Sf9 insect cells
T1 sequence (Q9NRG4 whole entry): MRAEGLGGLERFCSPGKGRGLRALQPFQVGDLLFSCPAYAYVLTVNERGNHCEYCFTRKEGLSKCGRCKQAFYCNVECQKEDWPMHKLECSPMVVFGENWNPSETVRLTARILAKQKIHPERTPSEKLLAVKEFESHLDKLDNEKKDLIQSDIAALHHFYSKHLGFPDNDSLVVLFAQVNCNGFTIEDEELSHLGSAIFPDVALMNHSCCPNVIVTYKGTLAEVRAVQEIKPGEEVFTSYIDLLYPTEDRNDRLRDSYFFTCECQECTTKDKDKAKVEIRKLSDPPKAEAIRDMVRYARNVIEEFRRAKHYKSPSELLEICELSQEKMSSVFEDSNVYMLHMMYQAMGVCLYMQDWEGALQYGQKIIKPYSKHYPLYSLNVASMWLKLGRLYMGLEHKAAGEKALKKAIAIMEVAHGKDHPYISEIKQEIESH
In words: SMYD2 Biochemical Assay (3H-SAM, biotinylated peptide substrate, Flashplate). The conditions noted are these: IC50 values are an average of n = 1 to n = 50; read-out: SMYD2 Biochem IC50 (μM)*. In a few lines: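 Full-length His/FLAG-tagged SMYD2 expressed in Sf9 cells with tag cleaved, 1.5 nM, pre-incubated 30 min at room temperature with compound, then 10 nM 3H-SAM and 60 nM biotinylated peptide added. Buffer 20 mM Bicine pH 7.6, 1 mM TCEP, 0.005% BSG, 0.002% Tween20, 2% DMSO. Stopped with 600 uM cold SAM; 3H-peptide captured on streptavidin Flashplate; IC50 by curve fit.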
In the case of `CC(C)N1C[C@@H](NC(=O)c2cc(C3CC3)on2)[C@@](C)(O)C1` (racemic) [compound 241, (±)-cis-5-cyclopropyl-N-[4-hydroxy-4-methyl-1-(propan-2-yl)pyrrolidin-3-yl]-1,2-oxazole-3-carboxamide], the IC50 amounted to 24.8 µM. Take `C[C@H]1CN(CC2CCC2)C[C@H]1NC(=O)c1cc(C2CC2)on1` (racemic) [compound 202, (±)-cis-N-[1-(cyclobutyl-methyl)-4-methyl-pyrrolidin-3-yl]-5-cyclopropyl-1,2-oxazole-3-carboxamide]: the IC50 is 1.63 µM.

Turning to `C[C@H]1CN(CC2CCOC2)C[C@H]1NC(=O)c1cc(C2CC2)on1` (mixture of isomers) [compound 155, (±)-cis-5-cyclopropyl-N-[4-methyl-1-(oxolan-3-ylmethyl)pyrrolidin-3-yl]-1,2-oxazole-3-carboxamide], the IC50 turned out to be 4.49 µM. For the molecule `CC(C)N1C[C@@H](C)[C@H](NC(=O)c2cc(C3(C)CCC3)on2)C1` (racemic) [compound 259, (±)-trans-N-[4-methyl-1-(propan-2-yl)pyrrolidin-3-yl]-5-(1-methylcyclobutyl)-1,2-oxazole-3-carboxamide], the IC50 was greater than 50 µM. As to `C[C@H]1CN(CC(=O)N2CCCC2)C[C@H]1NC(=O)c1cc(C2CC2)on1` (racemic) [compound 264, (±)-cis-5-cyclopropyl-N-[4-methyl-1-[2-oxo-2-(pyrrolidin-1-yl)ethyl]pyrrolidin-3-yl]-1,2-oxazole-3-carboxamide], the IC50 is greater than 50 µM.

In the case of `C[C@H]1CN(Cc2c[nH]cn2)C[C@H]1NC(=O)c1cc(C2CC2)on1` (racemic) [compound 328, (±)-cis-5-cyclopropyl-N-[1-(1H-imidazol-4-ylmethyl)-4-methyl-pyrrolidin-3-yl]-1,2-oxazole-3-carboxamide], the IC50 was 2.65 µM. Still for that read-out and setting: the value for `C[C@H]1CN(c2cnccn2)C[C@H]1NC(=O)c1cc(C2CC2)on1` (racemic) [compound 302, (±)-cis-5-cyclopropyl-N-[4-methyl-1-(pyrazin-2-yl)pyrrolidin-3-yl]-1,2-oxazole-3-carboxamide] was greater than 50 µM; that for `CC(C)c1cc(C(=O)N[C@@H]2CN(C(C)C)C[C@H]2C)no1` (racemic) [compound 192, (±)-trans-N-[4-methyl-1-(propan-2-yl)pyrrolidin-3-yl]-5-(propan-2-yl)-1,2-oxazole-3-carboxamide] was greater than 50 µM; that for `COc1cccc(N2C[C@H](C)[C@H](NC(=O)c3cc(C4CC4)on3)C2)c1` (racemic) [compound 280, (±)-cis-5-cyclopropyl-N-[1-(3-methoxyphenyl)-4-methylpyrrolidin-3-yl]-1,2-oxazole-3-carboxamide] was greater than 50 µM. As to `C[C@H]1CN(Cc2cc3ccccc3s2)C[C@H]1NC(=O)c1cc(C2CC2)on1` (racemic) [compound 195, (±)-cis-N-[1-(1-benzothiophen-2-ylmethyl)-4-methyl-pyrrolidin-3-yl]-5-cyclopropyl-1,2-oxazole-3-carboxamide], the IC50 was found to be 33.4 µM.

`C[C@H]1CN(CC2CC2)C[C@H]1NC(=O)c1cc(C2CC2)on1` (racemic) [compound 162, (±)-cis-5-cyclopropyl-N-[1-(cyclopropylmethyl)-4-methylpyrrolidin-3-yl]-1,2-oxazole-3-carboxamide]: the IC50 turned out to be 1.42 µM. On to `C[C@H]1CN(Cc2ccc3c(c2)OCCO3)C[C@H]1NC(=O)c1cc(C2CC2)on1` (racemic) [compound 274, (±)-cis-5-cyclopropyl-N-[1-(2,3-dihydro-1,4-benzodioxin-6-ylmethyl)-4-methylpyrrolidin-3-yl]-1,2-oxazole-3-carboxamide], for which the IC50 turned out to be 6.3 µM. With `C[C@@H]1CN(CCF)C[C@H]1NC(=O)c1cc(C2CC2)on1` (racemic) [compound 253, (±)-trans-5-cyclopropyl-N-[1-(2-fluoroethyl)-4-methylpyrrolidin-3-yl]-1,2-oxazole-3-carboxamide], the IC50 was greater than 50 µM.

Consider `COc1ccccc1N1C[C@H](C)[C@H](NC(=O)c2cc(C3CC3)on2)C1` (racemic) [compound 279, (±)-cis-5-cyclopropyl-N-[1-(2-methoxyphenyl)-4-methylpyrrolidin-3-yl]-1,2-oxazole-3-carboxamide], for which the IC50 was greater than 50 µM. Same read-out and setting: the value for `CC(C)N1C[C@@H](C)[C@H](NC(=O)c2cc(C(C)(C)C)on2)C1` (racemic) [compound 200, (±)-trans-5-tert-butyl-N-[4-methyl-1-(propan-2-yl)pyrrolidin-3-yl]-1,2-oxazole-3-carboxamide] was greater than 50 µM. Take `C[C@H]1CN(Cc2cnc3ncccn23)C[C@H]1NC(=O)c1cc(C2CC2)on1` (racemic) [compound 211, (±)-cis-5-cyclopropyl-N-[1-{imidazo[1,2-a]pyrimidin-3-ylmethyl}-4-methylpyrrolidin-3-yl]-1,2-oxazole-3-carboxamide]: the IC50 is greater than 50 µM. `COC(=O)CN1C[C@@H](C)[C@H](NC(=O)c2cc(C3CC3)on2)C1` (racemic) [compound 220, (±)-trans-methyl 2-[3-(5-cyclopropyl-1,2-oxazole-3-amido)-4-methylpyrrolidin-1-yl]acetate]: the IC50 was greater than 50 µM. As to `Cc1nn(C)cc1CN1C[C@@H](C)[C@H](NC(=O)c2cc(C3CC3)on2)C1` (racemic) [compound 183, (±)-trans-5-cyclopropyl-N-[1-[(1,3-dimethyl-1H-pyrazol-4-yl)methyl]-4-methylpyrrolidin-3-yl]-1,2-oxazole-3-carboxamide], the IC50 was greater than 50 µM. As for `C[C@@H]1CN(Cc2c[nH]c3ccccc23)C[C@H]1NC(=O)c1cc(C2CC2)on1` (racemic) [compound 160, (±)-trans-5-cyclopropyl-N-[1-(1H-indol-3-ylmethyl)-4-methyl-pyrrolidin-3-yl]-1,2-oxazole-3-carboxamide], the IC50 is greater than 50 µM. As for `Cc1cc(CN2C[C@H](C)[C@H](NC(=O)c3cc(C4CC4)on3)C2)oc1C` (racemic) [compound 268, (±)-cis-5-cyclopropyl-N-{1-[(4,5-dimethyl-furan-2-yl)methyl]-4-methylpyrrolidin-3-yl]-1,2-oxazole-3-carboxamide], the IC50 stood at 5.3 µM. Regarding `C[C@@H]1CN(Cc2ccccc2Cl)C[C@H]1NC(=O)c1cc(C2CC2)on1` (racemic) [compound 142, (±)-trans-N-1-[(2-chlorophenyl)methyl]-4-methylpyrrolidin-3-yl]-5-cyclopropyl-1,2-oxazole-3-carboxamide], the IC50 turned out to be 27.5 µM. Turning to `CC(C)N1C[C@@H](NC(=O)c2cc(C3CC3)on2)C[C@@H]1COCC#CC1CCCCC1` (stereo in doubt) [compound 236, (±)-trans-N-[5-{[(3-cyclo-hexylprop-2-yn-1-yl)oxy]methyl}-1-(propan-2-yl)pyrrolidin-3-yl]-5-cyclopropyl-1,2-oxazole-3-carboxamide], the IC50 is greater than 50 µM.

The test is the same for the next values; noted with them: Table 1; average of n = 1 to n = 50; read-out: SMYD2 Biochem IC50.
As for `CN1C[C@@H](O)[C@H](NC(=O)c2cc(C3CC3)on2)C1` (racemic) [compound 40, (±)-trans-5-cyclopropyl-N-(-4-hydroxy-1-methylpyrrolidin-3-yl)isoxazole-3-carboxamide], the IC50 was greater than 50 µM. Take `O=C(N[C@@H]1C[C@H](CO)N(C2CC2)C1)c1cc(C2CC2)on1` (racemic) [compound 49, (±)-cis-5-cyclopropyl-N-(1-cyclopropyl-5-(hydroxy-methyl)pyrrolidin-3-yl)isoxazole-3-carboxamide]: the IC50 is greater than 50 µM.

The test is the same for the next values; noted with them: Table 2; average of n = 1 to n = 50; read-out: SMYD2 Biochem IC50.
Regarding `C[C@H]1CN(C2CCCC2)C[C@H]1NC(=O)c1cc(C2CC2)on1` (racemic) [compound 75, (±)-cis-N-(1-cyclopentyl-4-methylpyrrolidin-3-yl)-5-cyclopropylisoxazole-3-carboxamide], the IC50 was determined as 5 µM. On to `C[C@H]1CN(CCN)C[C@H]1NC(=O)c1cc(C2CC2)on1` (racemic) [compound 78, (±)-cis-N-(1-(2-aminoethyl)-4-methylpyrrolidin-3-yl)-5-cyclopropylisoxazole-3-carboxamide], for which the IC50 is 27.5 µM. In the case of `C[C@@H]1CN(C2CCN(C(=O)OC(C)(C)C)CC2)C[C@H]1NC(=O)c1cc(C2CC2)on1` (racemic) [compound 103, (±)-trans-tert-butyl 4-((3S,4R)-3-(5-cyclopropylisoxazole-3-carboxamido)-4-methylpyrrolidin-1-yl)piperidine-1-carboxylate], the IC50 was greater than 50 µM.

In the case of `CC(=O)N1CCC(N2C[C@@H](C)[C@H](NC(=O)c3cc(C4CC4)on3)C2)CC1` (racemic) [compound 106, (±)-trans-N-(1-(1-acetylpiperidin-4-yl)-4-methylpyrrolidin-3-yl)-5-cyclopropylisoxazole-3-carboxamide], the IC50 is greater than 50 µM. Take `C[C@@H]1CN(C2CCS(=O)(=O)CC2)C[C@@H]1NC(=O)c1cc(C2CC2)on1` (racemic) [compound 74, (±)-cis-5-cyclopropyl-N-(1-(1,1-dioxidotetrahydro-2H-thiopyran-4-yl)-4-methylpyrrolidin-3-yl)isoxazole-3-carboxamide]: the IC50 is 14 µM. Still for that read-out and setting: the value for `C[C@@H]1CN(C(=O)CN)C[C@@H]1NC(=O)c1cc(C2CC2)on1` (racemic) [compound 68, (±)-cis-5-cyclopropyl-N-(1-glycyl-4-methylpyrrolidin-3-yl)isoxazole-3-carboxamide] was greater than 50 µM; that for `C[C@@H]1CN(CCS(C)(=O)=O)C[C@H]1NC(=O)c1cc(C2CC2)on1` (racemic) [compound 100, (±)-trans-5-cyclopropyl-N-(4-methyl-1-(2-(methyl-sulfonyl)ethyl)pyrrolidin-3-yl)isoxazole-3-carboxamide] was greater than 50 µM.
